Results as given in patent US20250235547A1, “ANTIBODY-DRUG CONJUGATE” (UBE Corporation, priority 2022, published 2025).
Numbered stars: 1 amine (or outer) side, 2 acyl side, 3 side chain; on linkers, the order of the positions; unused ones are H or OH. Square brackets hold non-standard residues; d marks the D form. Peptide text beside a SMILES is read from it. * marks the point of attachment. X4 = COC(=O)C1OC(O[C@@H](c2ccccc2)[C@@H](C)N*)C(OC(C)=O)C(OC(C)=O)C1OC(C)=O; Dolaproine = CO[C@@H]([C@@H]1CCCN1)[C@@H](C)C(=O)O; Hexanoyl(6-maleimido) = O=C1C=CC(=O)N1CCCCCC(=O)*; Propanoyl(3-maleimido) = O=C1C=CC(=O)N1CCC(=O)*; Dil = CC[C@H](C)[C@H](NC)[C@@H](CC(=O)O)OC; X3 = C[C@@H](N*)[C@@H](OP(=O)(O)O)c1ccccc1; PABC = O=C(OCc1ccc(N[*:1])cc1)[*:2]; X1 = C[C@@H](N*)[C@@H](O)c1ccccc1; hSer(lactone) = O=C1OCC[C@@H]1N*; Cit = NC(=O)NCCC[C@H](N)C(=O)O; PEG4 = NCCOCCOCCOCCOCCC(=O)O; NMeV = CN[C@H](C(=O)O)C(C)C

Assays:
[1] = Retention time in HPLC of reactive precursor (index of hydrophilicity); assay type: physicochemical; conditions: BEH C18, 0.1% formic acid water/acetonitrile gradient, 40° C.
Procedure: As an index of hydrophilicity of the reactive precursor (Compound (III)), the retention time (RT) in HPLC analysis was measured, and compared.

[2] = target: T1, porcine tubulin (Sus scrofa, UniProt P02550+P02554); assay: Tubulin polymerization inhibition test; assay type: biochemical; conditions: fluorescence, 37° C., 60 minutes
T1 construct: purchased Cytoskeleton, Inc. BK011P
T1 sequence (P02554 whole entry): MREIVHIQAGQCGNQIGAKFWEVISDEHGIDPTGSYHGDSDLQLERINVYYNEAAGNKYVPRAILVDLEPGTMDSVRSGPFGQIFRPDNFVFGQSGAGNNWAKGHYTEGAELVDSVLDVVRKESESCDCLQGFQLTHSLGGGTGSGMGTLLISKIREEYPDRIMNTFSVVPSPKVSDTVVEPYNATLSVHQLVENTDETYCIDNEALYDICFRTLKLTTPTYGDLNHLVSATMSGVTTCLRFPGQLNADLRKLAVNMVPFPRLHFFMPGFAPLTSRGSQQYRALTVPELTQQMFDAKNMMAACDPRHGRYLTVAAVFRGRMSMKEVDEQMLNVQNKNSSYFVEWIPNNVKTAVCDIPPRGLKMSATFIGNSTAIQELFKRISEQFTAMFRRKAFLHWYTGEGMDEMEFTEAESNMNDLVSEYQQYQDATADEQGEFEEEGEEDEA
T1 sequence (P02550 whole entry): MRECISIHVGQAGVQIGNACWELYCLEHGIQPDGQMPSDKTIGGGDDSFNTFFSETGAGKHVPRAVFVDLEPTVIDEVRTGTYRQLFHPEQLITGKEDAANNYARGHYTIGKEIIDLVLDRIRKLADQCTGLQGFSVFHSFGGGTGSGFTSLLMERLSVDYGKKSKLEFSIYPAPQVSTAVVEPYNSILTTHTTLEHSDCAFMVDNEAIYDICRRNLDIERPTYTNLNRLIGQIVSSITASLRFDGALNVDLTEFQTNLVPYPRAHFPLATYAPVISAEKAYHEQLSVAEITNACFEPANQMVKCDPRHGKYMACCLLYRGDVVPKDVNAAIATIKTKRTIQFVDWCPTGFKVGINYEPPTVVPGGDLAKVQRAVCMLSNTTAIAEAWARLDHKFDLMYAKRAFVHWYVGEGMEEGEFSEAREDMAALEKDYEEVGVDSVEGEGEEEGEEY
Procedure: For measuring the tubulin polymerization inhibitory action, Tubulin Polymerization Assay Kit (manufactured by Cytoskeleton, Inc., BK011P) was used. A PIPES buffer containing porcine tubulin, GTP, MgCl2, EGTA, Glycerol, and a fluorescent reporter was prepared under ice-cooling as a reaction solution. The reaction solution was ice-cooled until it was used. A test compound solution was prepared by an aqueous solution containing 1.5% DMSO, and added to a 96 well plate (manufactured by Corning Inc., 3686) at 5 μL/well. The reaction solution was added thereto at 50 μL/well, the plate was placed in a microplate reader (FlexStation 3, manufactured by Molecular Device, LLC) in which the internal temperature was set to 37° C. in advance, and the fluorescence intensity measurement (excitation wavelength: 360 nm, detection wavelength: 420 nm) of each well was started. The fluorescence intensity was measured once every minute, and the measurement was continued for 60 minutes.
The tubulin polymerization inhibition rate (%) was calculated by the following equation.
Amount of fluorescence intensity increase: (average fluorescence intensity after 51 to 60 minutes from measurement start)−(average fluorescence intensity after 1 to 6 minutes from measurement start)

| Structure (SMILES) | Retention time in HPLC measurement [1] | IC50 [2] |
| --- | --- | --- |
| CC[C@H](C)[C@@H]([C@@H](CC(=O)N1CCC[C@H]1C(OC)[C@@H](C)C(=O)N[C@H](C)[C@@H](O)c1ccccc1)OC)N(C)C(=O)[C@@H](NC(=O)[C@H](C(C)C)N(C)C(=O)OCc1ccc(NC(=O)[C@H](CCCNC(N)=O)NC(=O)[C@@H](NC(=O)[C@H](CC(=O)NC2CCOC2=O)NC(=O)[C@H](CC(=O)N[C@H]2CCOC2=O)NC(=O)[C@H](CC(=O)N[C@H]2CCOC2=O)NC(=O)[C@H](CC(=O)N[C@H]2CCOC2=O)NC(=O)[C@H](CC(=O)NC2CCOC2=O)NC(=O)CCOCCOCCOCCOCCNC(=O)CCN2C(=O)C=CC2=O)C(C)C)cc1)C(C)C (stereo in doubt) [Reference Example 6] | 1.09 min | – |
| CC[C@H](C)[C@@H]([C@@H](CC(=O)N1CCC[C@H]1[C@H](OC)[C@@H](C)C(=O)N[C@H](C)[C@@H](O)c1ccccc1)OC)N(C)C(=O)[C@@H](NC(=O)[C@H](C(C)C)N(C)Cc1cc([N+](=O)[O-])ccc1F)C(C)C [Example U-008] | – | ≤ 3 µM |
| CC[C@H](C)[C@@H]([C@@H](CC(=O)N1CCC[C@H]1[C@H](OC)[C@@H](C)C(=O)N[C@H](C)[C@@H](OC1OC(C(=O)OC)C(OC(C)=O)C(OC(C)=O)C1OC(C)=O)c1ccccc1)OC)N(C)C(=O)[C@@H](NC(=O)[C@@H](NC)C(C)C)C(C)C (some centres unmarked) [Example U-014] (H-[NMeV]V[Dil][Dolaproine]-X4) | – | ≤ 3 µM |
| CC[C@H](C)[C@@H]([C@@H](CC(=O)N1CCC[C@H]1[C@H](OC)[C@@H](C)C(=O)N[C@H](C)[C@@H](O)c1ccccc1)OC)N(C)C(=O)[C@@H](NC(=O)[C@H](C(C)C)N(C)C(=O)OCc1ccc(NC(=O)[C@H](CCCNC(N)=O)NC(=O)[C@@H](NC(=O)CCCCCN2C(=O)C=CC2=O)C(C)C)cc1)C(C)C [MC-Val-Cit-PAB-MMAE, reference compound] ({Hexanoyl(6-maleimido)}-V[Cit][PABC][NMeV]V[Dil][Dolaproine]-X1) | 1.24 min | – |
| C=C1C[C@@H]2CC[C@@]34C[C@H]5O[C@H]6[C@@H](O3)[C@H]3O[C@H](CC[C@@H]3O[C@H]6[C@H]5O4)CC(=O)C[C@@H]3[C@@H](OC)[C@@H](C[C@H](O)CNC(=O)OCc4ccc(NC(=O)[C@H](CCCNC(N)=O)NC(=O)[C@@H](NC(=O)CCOCCOCCN5C(=O)C=CC5=O)C(C)C)cc4)O[C@H]3C[C@H]3O[C@@H](CC[C@@H]1O2)C[C@@H](C)C3=C [Mal-PEG2-Val-Cit-PAB-Eribulin, reference compound] | 1.19 min | – |
| CC[C@H](C)[C@@H]([C@@H](CC(=O)N1CCC[C@H]1[C@H](OC)[C@@H](C)C(=O)N[C@H](C)[C@@H](OP(=O)(O)O)c1ccccc1)OC)N(C)C(=O)[C@@H](NC(=O)[C@H](C(C)C)N(C)C(=O)OCc1ccc(NC(=O)[C@H](CCCNC(N)=O)NC(=O)[C@@H](NC(=O)[C@H](CC(=O)N[C@H]2CCOC2=O)NC(=O)CCOCCOCCOCCOCCNC(=O)CCN2C(=O)C=CC2=O)C(C)C)cc1)C(C)C [Reference Example 2] ({Propanoyl(3-maleimido)-PEG4}-D(hSer(lactone))V[Cit][PABC][NMeV]V[Dil][Dolaproine]-X3) | 0.96 min | – |
| CC[C@H](C)[C@@H]([C@@H](CC(=O)N1CCC[C@H]1[C@H](OC)[C@@H](C)C(=O)N[C@H](C)[C@@H](OP(=O)(O)OCc1ccc(NC(=O)[C@H](CCCNC(N)=O)NC(=O)[C@@H](NC(=O)[C@H](CC(=O)N[C@H]2CCOC2=O)NC(=O)CCOCCOCCOCCOCCNC(=O)[C@H](CNC(=O)CCP(=O)(O)O)N2C(=O)C=CC2=O)C(C)C)cc1)c1ccccc1)OC)N(C)C(=O)[C@@H](NC(=O)[C@H](C(C)C)N(C)C)C(C)C [Reference Example 3] | 0.70 min | – |
| C=C1C[C@@H]2CC[C@@]34C[C@H]5O[C@H]6[C@@H](O3)[C@H]3O[C@H](CC[C@@H]3O[C@H]6[C@H]5O4)CC(=O)C[C@@H]3[C@@H](OC)[C@@H](C[C@@H](CCNC(=O)OCc4ccc(NC(=O)[C@H](CCCNC(N)=O)NC(=O)[C@@H](NC(=O)[C@H](CC(=O)N[C@H]5CCOC5=O)NC(=O)CCOCCOCCOCCOCCNC(=O)[C@H](CNC(=O)CCP(=O)(O)O)N5C(=O)C=CC5=O)C(C)C)cc4)OP(=O)(O)O)O[C@H]3C[C@H]3O[C@@H](CC[C@@H]1O2)C[C@@H](C)C3=C [Reference Example 26] | 0.91 min | – |
